Laboratory results: patent publication US20220033389A1, “INSECTICIDAL COMPOUNDS” (SYNGENTA CROP PROTECTION AG, priority 2018, published 2022)

What was measured:
Assay type in all cases: in vivo
[1] = tested on: Tetranychus urticae (Two-Spotted Spider Mite); experiment: Tetranychus urticae (two-spotted spider mite) feeding/contact activity; conditions: 192 h, mixed population (mobile stages), 8 days after infestation
Method: Tetranychus urticae (Two-Spotted Spider Mite): Feeding/Contact Activity
Bean leaf discs on agar in 24-well microtiter plates were sprayed with aqueous test solutions prepared from 10′000 ppm DMSO stock solutions. After drying the leaf discs were infested with a mite population of mixed ages. The samples were assessed for mortality on mixed population (mobile stages) 8 days after infestation.

[2] = tested on: Euschistus heros (Neotropical Brown Stink Bug); experiment: Euschistus heros (neotropical brown stink bug) on soybean leaves, spray; conditions: 120 h, N2 nymphs, 5 days after infestation, read-out: effect in at least one of the two categories (mortality or growth inhibition)
Method: Euschistus heros(Neotropical Brown Stink Bug) Soybean leaves on agar in 24-well microtiter plates were sprayed with aqueous test solutions prepared from 10′000 ppm DMSO stock solutions. After drying the leaves were infested with N2 nymphs. The samples were assessed for mortality and growth inhibition in comparison to untreated samples 5 days after infestation.

[3] = tested on: Plutella xylostella (Diamond Back Moth); experiment: Plutella xylostella (diamond back moth), eggs on artificial diet; conditions: 192 h, 8 days after infestation, read-out: effect in at least one of the two categories (mortality or growth inhibition)
Method: (§1) Plutella xylostella (Diamond Back Moth)
24-well microtiter plates with artificial diet were treated with aqueous test solutions prepared from 10′000 ppm DMSO stock solutions by pipetting. After drying, Plutella eggs were pipetted through a plastic stencil onto a gel blotting paper and the plate was closed with it. The samples were assessed for mortality and growth inhibition in comparison to untreated samples 8 days after infestation.

[4] = tested on: Thrips tabaci (Onion Thrips); experiment: Thrips tabaci (onion thrips) feeding/contact activity; conditions: 144 h, mixed ages, 6 days after infestation
Method: Thrips tabaci (Onion Thrips) Feeding/Contact Activity
Sunflower leaf discs were placed on agar in 24-well microtiter plates and sprayed with aqueous test solutions prepared from 10′000 ppm DMSO stock solutions. After drying the leaf discs were infested with a thrips population of mixed ages. The samples were assessed for mortality 6 days after infestation.

[5] = tested on: Spodoptera littoralis (Egyptian Cotton Leaf Worm); experiment: Spodoptera littoralis (Egyptian cotton leaf worm) on cotton leaf discs; conditions: foliar, 72 h, L1 larvae, 3 days after infestation
Method: Spodoptera littoralis (Egyptian Cotton Leaf Worm)
Cotton leaf discs were placed onto agar in 24-well microtiter plates and sprayed with aqueous test solutions prepared from 10′000 ppm DMSO stock solutions. After drying the leaf discs were infested with five L1 larvae. The samples were assessed for mortality, anti-feeding effect, and growth inhibition in comparison to untreated samples 3 days after infestation. Control of Spodoptera littoralis by a test sample is given when at least one of the categories mortality, anti-feedant effect, and growth inhibition is higher than the untreated sample.

[6] = tested on: Diabrotica balteata (Corn Root Worm); experiment: Diabrotica balteata (corn root worm) on maize sprouts, spray; conditions: 96 h, L2 larvae, 4 days after infestation, read-out: effect in at least one of the two categories (mortality or growth inhibition)
Method: Diabrotica balteata (Corn Root Worm)
Maize sprouts placed onto an agar layer in 24-well microtiter plates were treated with aqueous test solutions prepared from 10′000 ppm DMSO stock solutions by spraying. After drying, the plates were infested with L2 larvae (6 to 10 per well). The samples were assessed for mortality and growth inhibition in comparison to untreated samples 4 days after infestation.

[7] = tested on: Myzus persicae (Green Peach Aphid); experiment: Myzus persicae (green peach aphid) feeding/contact activity; conditions: 144 h, mixed ages, 6 days after infestation
Method: Myzus persicae (Green Peach Aphid): Feeding/Contact Activity
Sunflower leaf discs were placed onto agar in a 24-well microtiter plate and sprayed with aqueous test solutions prepared from 10′000 ppm DMSO stock solutions. After drying, the leaf discs were infested with an aphid population of mixed ages. The samples were assessed for mortality 6 days after infestation.

[8] = tested on: Plutella xylostella (Diamond Back Moth); experiment: Plutella xylostella (diamond back moth), L2 larvae on artificial diet; conditions: 120 h, 5 days after infestation, read-out: effect in at least one of the two categories (mortality or growth inhibition)
Method: as §1
24-well microtiter plates with artificial diet were treated with aqueous test solutions prepared from 10′000 ppm DMSO stock solutions by pipetting. After drying, the plates were infested with L2 larvae (10 to 15 per well). The samples were assessed for mortality and growth inhibition in comparison to untreated samples 5 days after infestation.

CCOC1=NOC(N(COC(=O)N(C)C)C(=O)c2ccc(C3=NO[C@@](c4cc(Cl)c(F)c(Cl)c4)(C(F)(F)F)C3)cc2C)C1 (stereo partly drawn) [Compound A5, [[4-[(5S)-5-(3,5-dichloro-4-fluoro-phenyl)-5-(trifluoromethyl)-4H-isoxazol-3-yl]-2-methyl-benzoyl]-(3-ethoxy-4,5-dihydroisoxazol-5-yl)amino]methyl N,N-dimethylcarbamate]
≥ 80%: mortality at 200 ppm [1] | percent effect (mortality or growth inhibition) at 200 ppm [2] | percent effect (mortality or growth inhibition) at 200 ppm [3] | mortality at 200 ppm [4] | percent control (mortality, anti-feedant effect or growth inhibition) at 200 ppm [5] | percent effect (mortality or growth inhibition) at 200 ppm [6]

CCOC1=NOC(N(COC(=O)C(C)C)C(=O)c2ccc(C3=NO[C@@](c4cc(Cl)c(F)c(Cl)c4)(C(F)(F)F)C3)cc2C)C1 (stereo partly drawn) [Compound A2, [[4-[(5S)-5-(3,5-dichloro-4-fluoro-phenyl)-5-(trifluoromethyl)-4H-isoxazol-3-yl]-2-methyl-benzoyl]-(3-ethoxy-4,5-dihydroisoxazol-5-yl)amino]methyl 2-methylpropanoate]
≥ 80%: mortality at 200 ppm [1] | percent effect (mortality or growth inhibition) at 200 ppm [2] | mortality at 200 ppm [4] | mortality at 200 ppm [7] | percent control (mortality, anti-feedant effect or growth inhibition) at 200 ppm [5] | effect (mortality or growth inhibition) at 200 ppm [8] | percent effect (mortality or growth inhibition) at 200 ppm [6]

CCOC1=NOC(N(COC(=O)OC)C(=O)c2ccc(C3=NO[C@@](c4cc(Cl)c(F)c(Cl)c4)(C(F)(F)F)C3)cc2C)C1 (stereo partly drawn) [Compound A6, [[4-[(5S)-5-(3,5-dichloro-4-fluoro-phenyl)-5-(trifluoromethyl)-4H-isoxazol-3-yl]-2-methyl-benzoyl]-(3-ethoxy-4,5-dihydroisoxazol-5-yl)amino]methyl methyl carbonate]
≥ 80%: percent effect (mortality or growth inhibition) at 200 ppm [2] | percent effect (mortality or growth inhibition) at 200 ppm [3] | percent control (mortality, anti-feedant effect or growth inhibition) at 200 ppm [5]

CCOC1=NOC(N(CN(C)C(=O)OC)C(=O)c2ccc(C3=NO[C@@](c4cc(Cl)c(F)c(Cl)c4)(C(F)(F)F)C3)cc2C)C1 (stereo partly drawn) [Compound A4, methyl N-[[[4-[(5S)-5-(3,5-dichloro-4-fluoro-phenyl)-5-(trifluoromethyl)-4H-isoxazol-3-yl]-2-methyl-benzoyl]-(3-ethoxy-4,5-dihydroisoxazol-5-yl)amino]methyl]-N-methyl-carbamate]
≥ 80%: mortality at 200 ppm [1] | percent effect (mortality or growth inhibition) at 200 ppm [2] | percent effect (mortality or growth inhibition) at 200 ppm [3] | mortality at 200 ppm [4] | mortality at 200 ppm [7] | percent control (mortality, anti-feedant effect or growth inhibition) at 200 ppm [5] | percent effect (mortality or growth inhibition) at 200 ppm [6]

CCOC1=NOC(N(C(=O)c2ccc(C3=NO[C@@](c4cc(Cl)c(F)c(Cl)c4)(C(F)(F)F)C3)cc2C)C(=O)C2CC2)C1 (stereo partly drawn) [Compound A1, N-(cyclopropanecarbonyl)-4-[(5S)-5-(3,5-dichloro-4-fluoro-phenyl)-5-(trifluoromethyl)-4H-isoxazol-3-yl]-N-(3-ethoxy-4,5-dihydroisoxazol-5-yl)-2-methyl-benzamide]
≥ 80%: mortality at 200 ppm [1] | percent effect (mortality or growth inhibition) at 200 ppm [2] | mortality at 200 ppm [4] | mortality at 200 ppm [7] | percent control (mortality, anti-feedant effect or growth inhibition) at 200 ppm [5] | effect (mortality or growth inhibition) at 200 ppm [8] | percent effect (mortality or growth inhibition) at 200 ppm [6]

CCOC1=NOC(N(COC(=O)C2CC2)C(=O)c2ccc(C3=NO[C@@](c4cc(Cl)c(F)c(Cl)c4)(C(F)(F)F)C3)cc2C)C1 (stereo partly drawn) [Compound A7, [[4-[(5S)-5-(3,5-dichloro-4-fluoro-phenyl)-5-(trifluoromethyl)-4H-isoxazol-3-yl]-2-methyl-benzoyl]-(3-ethoxy-4,5-dihydroisoxazol-5-yl)amino]methyl cyclopropanecarboxylate]
≥ 80%: percent effect (mortality or growth inhibition) at 200 ppm [2] | percent effect (mortality or growth inhibition) at 200 ppm [3] | percent control (mortality, anti-feedant effect or growth inhibition) at 200 ppm [5]

CCOC1=NOC(N(COC(=O)C(C)(C)C)C(=O)c2ccc(C3=NO[C@@](c4cc(Cl)c(F)c(Cl)c4)(C(F)(F)F)C3)cc2C)C1 (stereo partly drawn) [Compound A3, [[4-[(5S)-5-(3,5-dichloro-4-fluoro-phenyl)-5-(trifluoromethyl)-4H-isoxazol-3-yl]-2-methyl-benzoyl]-(3-ethoxy-4,5-dihydroisoxazol-5-yl)amino]methyl 2,2-dimethylpropanoate]
≥ 80%: mortality at 200 ppm [1] | percent effect (mortality or growth inhibition) at 200 ppm [2] | mortality at 200 ppm [4] | mortality at 200 ppm [7] | percent control (mortality, anti-feedant effect or growth inhibition) at 200 ppm [5] | effect (mortality or growth inhibition) at 200 ppm [8] | percent effect (mortality or growth inhibition) at 200 ppm [6]
